Patent US20050090522A1 (priority 2001, published 2005)
Where two headings read alike, the source gives them in different places.

Test system: HIV-1
Test: HIV-1 single-round infectious luciferase reporter virus (pseudotype) assay in HeLa CD4 CCR5 cells
Type: cell-based
Protocol: • Virus production—Human embryonic Kidney cell line, 293, propagated in Dulbecco's Modified Eagle Medium (Life Technologies, Gaithersburg, Md.) containing 10% fetal Bovine serum (FBS, Sigma, St. Louis, Mo.). • Virus infection—Human epithelial cell line, HeLa, expressing the HIV-1 receptors CD4 and CCR^5 was propagated in Dulbecco's Modified Eagle Medium (Life Technologies, Gaithersburg, Md.) containing 10% fetal Bovine serum (FBS, Sigma, St. Louis, Mo.) and supplemented with 0.2 mg/mL Geneticin (Life Technologies, Gaithersburg, Md.) and 0.4 mg/mL Zeocin (Invitrogen, Carlsbad, Calif.). […] Transfections were performed using lipofectAMINE PLUS reagent as described by the manufacturer (Life Technologies, Gaithersburg, Md.). Experiment • 1. Compound was added to HeLa CD4 CCR5 cells plated in 96 well plates at a cell density of 5×10^4 cells per well in 100 μl Dulbecco's Modified Eagle Medium containing 10% fetal Bovine serum at a concentration of […]. • 2. 100 μl of single-round infectious reporter virus in Dulbecco's Modified Eagle Medium was then added to the plated cells and compound at an approximate multiplicity of infection (MOI) of 0.01, resulting in a final volume of 200 μl per well and a final compound concentration of <10 μM. • 3. Samples were harvested 72 h after infection. • 4. Viral infection was monitored by measuring luciferase expression from viral DNA in the infected cells using a luciferase reporter gene assay kit (Roche Molecular Biochemicals, Indianapolis, Ind.). Infected cell supernatants were removed and 50 μl of Dulbecco's Modified Eagle Medium (without phenol red) and 50 μl of luciferase assay reagent reconstituted as described by the manufacturer (Roche Molecular Biochemicals, Indianapolis, Ind.) was added per well. Luciferase activity was then quantified by measuring luminescence using a Wallac microbeta scintillation counter. • 5. […] An EC50 provides a method for comparing the antiviral potency of the compounds of this invention. The effective concentration for fifty percent inhibition (EC50) was calculated with the Microsoft Excel Xlfit curve fitting software. For each compound, curves were generated from percent inhibition calculated at 10 different concentrations by using a four paramenter logistic model (model 205). Table 1 is the key for the data in Tables 2-4. Cytoxicity assays were conducted with the same HeLa using methodology well known in the art.
In Table 5, X2, X4 etc. indicates the point of attachment. […] The data at 10 μM was calculated in the following manner:
For compounds tested at concentrations less than 10 μM, the percent inhibition at 10 μM was determined by extrapolation using the XLfit curve fitting feature of the Microsoft Excel spreadsheet software. Curves were obtained from 10 data points (% inhibition determined at 10 concentrations of compound) by using a four parameter logistic model (XLfit model 205: y=A+((B−A)/(I+((C/x)^D))), where, A=minimum y, B=maximum y, C=logEC50, D=slope factor, and x and y are known data values. Extrapolations were performed with the A and B parameters unlocked. […]

[1] = Human immunodeficiency virus 1, HeLa-CD4/CCR5, read-out: EC50 Group from Table 1, Table 2-1, HeLa CD4 CCR5 cells, single-round luciferase reporter virus
[2] = Human immunodeficiency virus 1, HeLa-CD4/CCR5, read-out: EC50 Group from TABLE 1, HeLa CD4 CCR5 cells, single-round infectious luciferase reporter virus

COc1cnc(-n2ccc(C3CCC3)n2)c2[nH]cc(C(=O)C(=O)N3CCN(C(=O)c4ccccc4)[C@H](C)C3)c12 [Example 232, (R)-1-benzoyl-2-methyl-4-[(4-methoxy-7-(3-cycloputyl-pyrazol-1-yl)-6-azaindol-3-yl)-oxoacetyl]piperazine]
EC50 [1]: < 1000 nM

COc1cnc(-c2cn(C)c(=O)cn2)c2[nH]cc(C(=O)C(=O)N3CCN(C(=O)c4ccccc4)CC3)c12 [Example 138, 1-(benzoyl)-4-[(4-methoxy-7-(1-methylpyrazin-2-on-5-yl)-6-azaindol-3-yl)-oxoacetyl]piperazine]
EC50 [2]: < 1000 nM

COc1cnc(-n2ccc(C(F)(F)F)n2)c2[nH]cc(C(=O)C(=O)N3CCN(C(=O)c4ccccc4)CC3)c12 [Example 192, 1-benzoyl-4-[(4-methoxy-7-(3-trifluoromethylpyrazol-1-yl)-6-azaindol-3-yl)-oxoacetyl]piperazine]
EC50 [2]: < 1000 nM

COc1cnc(-n2ccc(-c3ccc(C)nc3)n2)c2[nH]cc(C(=O)C(=O)N3CCN(C(=O)c4ccccc4)[C@H](C)C3)c12 [Example 263, (R)-1-benzoyl-2-methyl-4-[(4-methoxy-7-(3-(2-methylpyridin-5-yl)pyrazol-1-yl)-6-azaindol-3-yl)-oxoacetyl]piperazine]
EC50 [1]: < 1000 nM

COc1cnc(C2=NC(C)(C)CO2)c2[nH]cc(C(=O)C(=O)N3CCN(C(=O)c4ccccc4)CC3)c12 [Example 156]
EC50 [2]: < 1000 nM

COc1cnc(-n2ccc(CN3CCS(=O)(=O)CC3)n2)c2[nH]cc(C(=O)C(=O)N3CCN(C(=O)c4ccccc4)CC3)c12 [Example 280, 1-benzoyl-4-[(4-methoxy-7-(3-(1,1-dioxo-thiomorpholin-4-yl)methyl-pyrazol-1-yl)-6-azaindol-3-yl)-oxoacetyl]piperazine]
EC50 [2]: < 1000 nM

COc1cnc(-c2cnc(SC)s2)c2[nH]cc(C(=O)C(=O)N3CCN(C(=O)c4ccccc4)CC3)c12 [Example 93, 1-benzoyl-4-[(4-methoxy-7-(2-methylthio-thiazol-5-yl)-6-azaindol-3-yl)-oxoacetyl]piperazine]
EC50 [2]: < 1000 nM

O=C(C(=O)N1CCN(C(=O)c2ccccc2)CC1)c1c[nH]c2c(-c3cc4ccccc4o3)ccnc12 [Example 203, 1-(7-benzofuran-2-yl-1H-pyrrolo[3,2-b]pyridin-3-yl)-2-(4-benzoyl-piperazin-1-yl)-ethane-1,2-dione]
EC50 (Human immunodeficiency virus 1, HeLa-CD4/CCR5, read-out: EC50 Group from Table 1, Table 4, HeLa CD4 CCR5 cells, single-round luciferase reporter virus): < 1000 nM

COc1cnc(-n2ccc(-c3cccc(C(F)(F)F)c3)n2)c2[nH]cc(C(=O)C(=O)N3CCN(C(=O)c4ccccc4)CC3)c12 [Example 287, 1-benzoyl-4-[(4-methoxy-7-(3-(3-trifluoromethyl-phenyl)-pyrazol-1-yl)-6-azaindol-3-yl)-oxoacetyl]piperazine]
EC50 [2]: < 1000 nM

COc1cnc(-c2ccncc2)c2[nH]cc(C(=O)C(=O)N3CCN(C(=O)c4ccccc4)CC3)c12 [Example 14, 1-benzoyl-4-[(4-methoxy-7-(pyridin-4-yl)-6-azaindol-3-yl)-oxoacetyl]piperazine]
EC50 [2]: < 1000 nM

C[C@@H]1CN(C(=O)c2ccccc2)CCN1C(=O)C(=O)c1c[nH]c2c(-c3cnccn3)nccc12 [Example 33, 1-benzoyl-3-(R)-methyl-4-[(7-(pyrazin-2-yl)-6-azaindol-3-yl)-oxoacetyl]piperazine]
EC50 [2]: < 1000 nM

O=C(C(=O)N1CCN(C(=O)c2ccccc2)CC1)c1c[nH]c2c(-c3cccc4cccnc34)nccc12 [Example 11, 1-benzoyl-4-[(7-(quinolin-8-yl)-6-azaindol-3-yl)-oxoacetyl]piperazine]
EC50 [2]: < 1000 nM

COc1cnc(N(c2ccccn2)S(C)(=O)=O)c2[nH]cc(C(=O)C(=O)N3CCN(C(=O)c4ccccc4)CC3)c12 [Example 331]
EC50 [2]: < 1000 nM

COc1cnc(-n2cnc(NCc3cccnc3)n2)c2[nH]cc(C(=O)C(=O)N3CCN(C(=O)c4ccccc4)[C@H](C)C3)c12 [Example 261, (R)-1-benzoyl-2-methyl-4-[(4-methoxy-7-(3-(3-pyridinemethylamino)-1,2,4-triazol-1-yl)-6-azaindol-3-yl)-oxoacetyl]piperazine]
EC50 [1]: < 1000 nM
